Experimental data as given in patent publication US10435388B2, “Selective inhibitors of clinically important mutants of the EGFR tyrosine kinase” (CS PHARMATECH LIMITED, priority 2016, dated 2019).

Tests used:
PC9 cells (SM) = test: PC-9 growth inhibition assay (cell proliferation), Method B; format: cell-based, human; settings: cellular proliferation, several runs
Procedure: (§1) Cell Proliferation Assays—Method B
(§2) Test compounds were dissolved in DMSO at 30 mM.
(§3) The final concentration was 1,000 cells/well. Add medium only as low control. […] 5% CO2 incubator for 72 hours.
(§4) After 72 hours incubation, remove the plates from incubator and equilibrate at room temperature for 15 minutes. Incubate the CellTiter Glo reagents (Promega, G9243) at 37° C. before the experiment. The buffer was equilibrated to room temperature and used to dissolve the substrate. To determine the cell viability, add 40 μL of CellTiter-Glo reagent into each well to be detected (at 1:1 to culture medium). Then the place the plates at room temperature for 30 min followed by read on EnSpire (PerkinElmer).
(§5) For estimation of IC50, the luminescence readout are transformed to % Inhibition by applying the following equation: The IC50 was then
(§6) [formula] calculated by fitting in XLFit to a four parameters logistic curve.
PC-9 Growth Inhibition Assay (Cell Proliferation).
The inhibition assay of PC-9 cells was conducted in the same manner as described above for H1975 cells.

H1975 cells (DM) = test: H1975 inhibition assay (cell proliferation), Method B; format: cell-based; settings: cellular proliferation, several runs
Procedure: as §1
H1975 Inhibition Assay (Cell Proliferation).
as §2, §3, §4, §5, §6

A431 cells (WT) = test: A431 inhibition assay (cell proliferation), Method B; format: cell-based, human; settings: Homo sapiens, A-431, 72 h, cellular proliferation, several runs
Procedure: as §1
A431 Inhibition Assay, (Cell Proliferation).
The rest procedure was conducted in the same manner as described above for H1975 cells.

IGF-1R = biological target: T1, IGF-1R (Homo sapiens, UniProt P08069); test: IGF-1R inhibition assay (Caliper EZ Reader); format: biochemical; settings: enzyme assay
T1 construct: purchased CARNA BIOSCIENCE 08-141
T1 sequence (P08069 959-1367 limits assumed): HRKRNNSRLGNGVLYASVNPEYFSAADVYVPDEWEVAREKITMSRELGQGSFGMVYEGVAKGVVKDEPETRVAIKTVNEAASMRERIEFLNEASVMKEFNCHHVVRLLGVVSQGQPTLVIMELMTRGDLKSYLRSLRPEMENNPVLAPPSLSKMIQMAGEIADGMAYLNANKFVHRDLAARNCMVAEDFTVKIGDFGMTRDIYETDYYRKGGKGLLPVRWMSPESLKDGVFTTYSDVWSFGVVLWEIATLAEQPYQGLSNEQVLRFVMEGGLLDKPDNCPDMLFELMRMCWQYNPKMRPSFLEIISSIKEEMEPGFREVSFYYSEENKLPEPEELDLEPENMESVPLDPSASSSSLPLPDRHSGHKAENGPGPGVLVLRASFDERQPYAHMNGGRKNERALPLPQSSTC
Procedure: (§7) Test compound was dissolved in DMSO at 30 mM. […] 20 nL of these compounds DMSO dilutes were dispensed into a new 384-well assay plate by Echo 550. […] 15 uL of kinase assay buffer containing IGF-1R protein and substrate was transferred to assay plate and incubate at RT for 30 minutes. Kinase assay buffer supplemented with substrate peptides was employed as low control to monitor the background. 40 μM ATP was prepared in kinase assay buffer containing and 5 μL of ATP solution was added to each well to start the reaction. The assay plate was incubated at 25° C. for 180 minutes and the reaction was stopped by adding 40 μL of 0.5 M EDTA.
Phosphorylated fluorescent-tagged peptides were differentiated from non-phosphorylated peptides by separating using Caliper EZ Reader II and the detection was directly converted to conversion ratio.

INSR = biological target: T2, INSR (Homo sapiens, UniProt P06213); test: INSR inhibition assay (Caliper EZ Reader); format: biochemical; settings: enzyme assay
T2 construct: purchased CARNA BIOSCIENCE 08-142
T2 sequence (P06213 989-1382 limits assumed): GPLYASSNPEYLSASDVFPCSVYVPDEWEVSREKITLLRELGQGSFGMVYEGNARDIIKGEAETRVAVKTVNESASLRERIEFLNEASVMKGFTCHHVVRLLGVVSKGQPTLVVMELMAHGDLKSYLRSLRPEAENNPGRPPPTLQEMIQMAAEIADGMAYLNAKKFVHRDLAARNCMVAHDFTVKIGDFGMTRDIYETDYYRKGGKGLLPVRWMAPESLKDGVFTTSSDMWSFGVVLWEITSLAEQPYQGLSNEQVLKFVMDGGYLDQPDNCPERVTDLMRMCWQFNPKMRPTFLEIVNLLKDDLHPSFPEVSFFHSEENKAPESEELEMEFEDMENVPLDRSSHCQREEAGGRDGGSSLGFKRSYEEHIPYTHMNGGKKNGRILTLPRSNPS
Procedure: as §7, with “INSR” for “IGF-1R”, “LM” for “μM”
The result is analyzed in the same manner of […].

| IC50 (PC9 cells (SM); Homo sapiens, PC-9, 72 h) [nM] | IC50 (H1975 cells (DM); Homo sapiens, NCI-H1975, 72 h) [nM] | IC50 (A431 cells (WT)) [nM] | IC50 (IGF-1R) [nM] | IC50 (INSR) [nM] | IC50 (PC9 cells (SM); 72 h) [nM] | IC50 (H1975 cells (DM); 72 h) [nM] | Compound |
| --- | --- | --- | --- | --- | --- | --- | --- |
| 0.76 | 0.72 | 121 | 3.94 | 4.76 | – | – | C=CC(=O)Nc1cc(Nc2nccc(-c3c[nH]c4c(C(N)=O)cccc34)n2)c(OC)cc1N(C)CCN(C)C [Example 16, 3-(2-(5-Acrylamido-4-((2-(dimethylamino)ethyl)(methyl)amino)-2-methoxyphenylamino)pyrimidin-4-yl)-1H-indole-7-carboxamide] |
| 1.92 | 2.35 | – | 23.5 | 19.3 | 1.54 | 2.12 | C=CC(=O)Nc1cc(Nc2nccc(-n3nc(N)c4ccccc43)n2)c(OC)cc1N(C)CCN(C)C [Example 20] |
| 3.09 | 6.23 | 82.5 | – | – | – | – | C=CC(=O)Nc1cc(Nc2nccc(-n3nc(NC(C)=O)c4ccccc43)n2)c(OC)cc1N(C)CCN(C)C [Example 53, N-(5-(4-(3-Acetamido-1H-indazol-1-yl)pyrimidin-2-ylamino)-2-((2-(dimethylamino)ethyl)(methyl)amino)-4-methoxyphenyl) acrylamide] |
| 1.5 | 2.36 | 1.46 | – | – | – | – | C=CC(=O)Nc1cc(Nc2nccc(-n3nc(Nc4ccccn4)c4ccccc43)n2)c(OC)cc1N(C)CCN(C)C [Example 58, N-(5-(4-(3-(Pyridin-2-ylamino)-1H-indazol-1-yl)pyrimidin-2-ylamino)-2-(N-(2-(dimethylamino)ethyl)-N-methylamino)-4-methoxyphenyl) acrylamide] |
| 19.7 | 8.45 | 716 | – | – | – | – | C=CC(=O)Nc1cc(Nc2nccc(-n3nc(N4CCCC4)c4ccccc43)n2)c(OC)cc1N(C)CCN(C)C [Example 59, N-(5-(4-(3-(Pyrrolidin-1-yl)-1H-indazol-1-yl)pyrimidin-2-ylamino)-2-(N-(2-(dimethylamino)ethyl)-N-methylamino)-4-methoxyphenyl) acrylamide] |
| 11.2 | 8.1 | 545 | – | – | – | – | C=CC(=O)Nc1cc(Nc2nccc(-n3nc(N(C)CC)c4ccccc43)n2)c(OC)cc1N(C)CCN(C)C [Example 60, N-(5-(4-(3-(N-Ethyl-N-methylamino)-1H-indazol-1-yl)pyrimidin-2-ylamino)-2-(N-(2-(dimethylamino)ethyl)-N-methylamino)-4-methoxyphenyl) acrylamide] |
| 29.5 | 94 | 1070 | – | – | – | – | C=CC(=O)Nc1cc(Nc2nccc(-n3cc(-c4c[nH]nn4)c4ccccc43)n2)c(OC)cc1N(C)CCN(C)C [Example 61, N-(5-(4-(3-(1H-1,2,3-Triazol-4-yl)-1H-indol-1-yl)pyrimidin-2-ylamino)-2-(N-(2-(dimethylamino)ethyl)-N-methylamino)-4-methoxyphenyl) acrylamide] |
| 0.94 | 2.24 | 43.9 | – | – | – | – | C=CC(=O)Nc1cc(Nc2nccc(-n3cc(S(=O)(=O)NC)c4ccccc43)n2)c(OC)cc1N(C)CCN(C)C [Example 62] |
| 5.79 | 3.03 | 528 | – | – | – | – | C=CC(=O)Nc1cc(Nc2ncc(Cl)c(-c3cnc(NC)c(C(C)=O)c3)n2)c(OC)cc1N(C)CCN(C)C [Example 63] |
| 5.65 | 7.96 | 426 | – | – | – | – | C=CC(=O)Nc1cc(Nc2nccc(-c3ccc(C(N)=O)c4[nH]ccc34)n2)c(OC)cc1N(C)CCN(C)C [Example 64, 4-(2-(5-Acrylamido-4-((2-(dimethylamino)ethyl)(methyl)amino)-2-methoxyphenylamino)pyrimidin-4-yl)-1H-indole-7-carboxamide] |
| 6.46 | 4.21 | 121 | – | – | – | – | C=CC(=O)Nc1cc(Nc2nccc(-n3nc(NC4CCOC4)c4ccccc43)n2)c(OC)cc1N(C)CCN(C)C (centres unmarked) [Example 65, N-(5-(4-(3-(Tetrahydrofuran-3-ylamino)-1H-indazol-1-yl)pyrimidin-2-ylamino)-2-(N-(2-(dimethylamino)ethyl)-N-methylamino)-4-methoxyphenyl) acrylamide] |
| 1.96 | 4.99 | 6.04 | – | – | – | – | C=CC(=O)Nc1cc(Nc2nccc(-n3nc(NCC4CC4)c4ccccc43)n2)c(OC)cc1N(C)CCN(C)C [Example 66, N-(5-(4-(3-(Cyclopropylmethylamino)-1H-indazol-1-yl)pyrimidin-2-ylamino)-2-((2-(dimethylamino)ethyl)(methyl)amino)-4-methoxyphenyl) acrylamide] |
| 2.37 | 0.86 | 264 | – | – | – | – | C=CC(=O)Nc1cc(Nc2nccc(-c3cc(C(N)=O)c4[nH]cc(C)c4c3)n2)c(OC)cc1N(C)CCN(C)C [Example 68, 5-(2-(5-Acrylamido-4-((2-(dimethylamino)ethyl)(methyl)amino)-2-methoxyphenylamino)pyrimidin-4-yl)-3-methyl-1H-indole-7-carboxamide] |
| 1.92 | 3.55 | 71.2 | – | – | – | – | C=CC(=O)Nc1cc(Nc2nccc(-n3nc(NC4CC4)c4ccccc43)n2)c(OC)cc1N(C)CCN(C)C [Example 69, N-(5-(4-(3-(cyclopropylamino)-1H-indazol-1-yl)pyrimidin-2-ylamino)-2-((2-(dimethylamino)ethyl)(methyl)amino)-4-methoxyphenyl) acrylamide] |
| 2.27 | 9.11 | 812 | – | – | – | – | C=CC(=O)Nc1cc(Nc2nccc(-n3nc(N(C)C)c4ccccc43)n2)c(OC(C)C)nc1N(C)CCN(C)C [Example 70, N-(5-((4-(3-(dimethylamino)-1H-indazol-1-yl)pyrimidin-2-yl)amino)-2-((2-(dimethylamino)ethyl)(methyl)amino)-6-isopropoxypyridin-3-yl) acrylamide] |
| 2.45 | 3.29 | 480 | – | – | – | – | C=CC(=O)Nc1cc(Nc2nccc(-n3nc(N(C)C)c4ccccc43)n2)c(OCC(F)F)nc1N(C)CCN(C)C [Example 71] |
| 5.88 | 8.55 | 912 | – | – | – | – | C=CC(=O)Nc1cc(Nc2nccc(-n3nc(N(C)C)c4ccccc43)n2)c(OC)nc1N(C)CCN(C)C [Example 72, N-(5-((4-(3-(Dimethylamino)-1H-indazol-1-yl)pyrimidin-2-yl)amino)-2-((2-(dimethylamino)ethyl)(methyl)amino)-6-methoxypyridin-3-yl) acrylamide] |
| 3.28 | 12.6 | 426 | – | – | – | – | C=CC(=O)Nc1cc(Nc2ncc(Cl)c(-n3cc(C(C)=O)c4ccccc43)n2)c(OC)cc1N(C)CCN(C)C [Example 73, N-(5-(4-(3-Acetyl-1H-indol-1-yl)-5-chloropyrimidin-2-ylamino)-2-((2-(dimethylamino)ethyl)(methyl)amino)-4-methoxyphenyl) acrylamide] |
| 5.74 | 28 | 396 | – | – | – | – | C=CC(=O)Nc1cc(Nc2nccc(-n3cc(-c4ccn[nH]4)c4ccccc43)n2)c(OC)cc1N(C)CCN(C)C [Example 74, N-(5-((4-(3-(1H-Pyrazol-3-yl)-1H-indol-1-yl)pyrimidin-2-yl)amino)-2-((2-(dimethylamino)ethyl)(methyl)amino)-4-methoxyphenyl) acrylamide] |
| 27.9 | 89.5 | 439 | – | – | – | – | C=CC(=O)Nc1cc(Nc2nccc(-n3cc(-c4cn[nH]c4)c4ccccc43)n2)c(OC)cc1N(C)CCN(C)C [Example 75, N-(5-((4-(3-(1H-Pyrazol-4-yl)-1H-indol-1-yl)pyrimidin-2-yl)amino)-2-((2-(dimethylamino)ethyl)(methyl)amino)-4-methoxyphenyl) acrylamide] |
| 3.33 | 2.27 | 152 | – | – | – | – | C=CC(=O)Nc1cc(Nc2nccc(-n3cc(-c4ccn[nH]4)c4ncccc43)n2)c(OC)cc1N(C)CCN(C)C [Example 76, N-(5-((4-(3-(1H-Pyrazol-5-yl)-1H-pyrrolo[3,2-b]pyridin-1-yl)pyrimidin-2-yl)amino)-2-((2-(dimethylamino)ethyl)(methyl)amino)-4-methoxyphenyl) acrylamide] |
